From ChEMBL document CHEMBL1201862, “PubChem BioAssay data set” (2004) come the findings set out here.

Each structure is given as a SMILES string. Calls of active or inactive are those of the source.

Test [1] in a line: cells. The test is classed as functional, cell-based.
Test [2] addresses Nuclear receptor subfamily 0 group B member 1 (Homo sapiens, UniProt P51843). It is filed as functional, cell-based.
In test [3] the target is Heat shock protein HSP 90-alpha (Homo sapiens, UniProt P07900). In words: Luminescence-based dose response biochemical high throughput screening assay for inhibitors of the Heat Shock Protein 90 (HSP90). [Related pubchem assays: 1831 (Summary AID.), 1846 (Confirmation screen.), 1789 (Primary screen.)].
A short description of test [4]: NIH3T3 cell viability loss – ATP luminescence, mouse fibroblasts, counter-screen, dose response (AID 2010).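 Note: cells exposed to compound for about 90 hours before reading.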 It is filed as functional, cell-based. In general terms: A counterscreen serves to expose hits that act by an unwanted route or on another target.
The next test has as its system A-375. Put plainly: MITF: Counter assay: A375 proliferation Measured in Cell-Based System Using Plate Reader - 2084-03_Inhibitor_Dose_DryPowder_Activity. [Related pubchem assays (depositor defined):AID488944]. It is filed as functional. As to conditions: Homo sapiens.
Test [5] can be described thus: Trypanosoma cruzi growth suppression in host cells – NIH3T3 host cells, beta-gal luminescence, confirmation (AID 2044).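 Note: intracellular parasites grown in NIH/3T3 mouse fibroblasts as host cells; luminescent beta-galactosidase reporter signal from transgenic T. cruzi replicating inside host cells; inhibitors lower the luminescence signal.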 The test is classed as functional, cell-based.
Test [6] can be described thus: alpha-synuclein stem-loop luciferase translation blockers – H4 neuroglioma cells, luminescence, confirmation (AID 1988). The test is classed as functional, cell-based.
A short description of test [7]: Luminescence Cell-Based Dose Response HTS to Identify Inhibitors of 5'UTR Stem-Loop Driven Prion Protein mRNA Translation in H4 Neuroglioblastoma Cells. [Related pubchem assays: 1827 (Project Summary), 1813 (Primary HTS)]. It is filed as functional.
Test [8] can be described thus: viability loss in HepG2 hepatoma cells – cell-based, ATP luminescence, cherry-pick, activator set 2, cytotoxicity control, dose response (AID 1053143). It is filed as functional.
A short description of test [9]: Luminescence Cell-Based Dose Response HTS to Identify Activators of Luciferase Translation or Activity in H4 […] Cells. [Related pubchem assays: 1829 (Project Summary), 1814 (Primary HTS)]. It is filed as functional.
For a further test, the system named is H4. In words: Luminescence Cell-Based Dose Response HTS to Identify Activators of 5'UTR Stem-Loop Driven Prion Protein mRNA Translation in H4 Neuroglioblastoma Cells. [Related pubchem assays: 1829 (Project Summary), 1814 (Primary HTS)]. Particulars: Homo sapiens. The test is classed as functional.
Test [10] is described as follows: cells. It is filed as functional, cell-based. This is another data set of the same source.
The nature of test [11]: cells. It is filed as functional, cell-based. The source holds these as a separate data set.
For test [12], the target named is Fructose-bisphosphate aldolase (Mycobacterium tuberculosis, UniProt P9WQA3). In words: Fluorescence-based biochemical high throughput dose response assay for inhibitors of the fructose-bisphosphate aldolase (FBA) of M. tuberculosis. The test is classed as functional.
Fructose-bisphosphate aldolase, sequence (P9WQA3 whole entry): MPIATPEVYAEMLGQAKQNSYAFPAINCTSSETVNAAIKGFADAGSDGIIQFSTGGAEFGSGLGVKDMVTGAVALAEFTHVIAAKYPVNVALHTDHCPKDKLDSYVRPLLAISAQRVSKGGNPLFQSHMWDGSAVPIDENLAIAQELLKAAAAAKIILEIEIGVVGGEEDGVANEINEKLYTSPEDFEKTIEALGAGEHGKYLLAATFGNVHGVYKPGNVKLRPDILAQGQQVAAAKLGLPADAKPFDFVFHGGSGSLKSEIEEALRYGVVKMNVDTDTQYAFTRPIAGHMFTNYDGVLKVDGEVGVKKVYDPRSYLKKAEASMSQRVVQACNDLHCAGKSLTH
Test [13] in a line: inhibitors of non-replicating M. tuberculosis, dose response, luciferase, dry powder (AID 651619). It is filed as functional. Particulars: Mycobacterium tuberculosis.
Test [14] can be described thus: inhibitors of non-replicating M. tuberculosis, dose response, luciferase, dry powder (AID 651620). It is filed as functional. As to conditions: Mycobacterium tuberculosis.
Test [15] in a line: viability loss in THP-1 monocytes – THP-1 cells, cytotoxicity control for Vif-APOBEC3G degradation inhibitor project, dose response (AID 1117359). It is filed as functional. As to conditions: THP-1.
The target of test [16] is T1, Sentrin-specific protease 1 (Homo sapiens, UniProt Q9P0U3).
T1 sequence (Q9P0U3 whole entry): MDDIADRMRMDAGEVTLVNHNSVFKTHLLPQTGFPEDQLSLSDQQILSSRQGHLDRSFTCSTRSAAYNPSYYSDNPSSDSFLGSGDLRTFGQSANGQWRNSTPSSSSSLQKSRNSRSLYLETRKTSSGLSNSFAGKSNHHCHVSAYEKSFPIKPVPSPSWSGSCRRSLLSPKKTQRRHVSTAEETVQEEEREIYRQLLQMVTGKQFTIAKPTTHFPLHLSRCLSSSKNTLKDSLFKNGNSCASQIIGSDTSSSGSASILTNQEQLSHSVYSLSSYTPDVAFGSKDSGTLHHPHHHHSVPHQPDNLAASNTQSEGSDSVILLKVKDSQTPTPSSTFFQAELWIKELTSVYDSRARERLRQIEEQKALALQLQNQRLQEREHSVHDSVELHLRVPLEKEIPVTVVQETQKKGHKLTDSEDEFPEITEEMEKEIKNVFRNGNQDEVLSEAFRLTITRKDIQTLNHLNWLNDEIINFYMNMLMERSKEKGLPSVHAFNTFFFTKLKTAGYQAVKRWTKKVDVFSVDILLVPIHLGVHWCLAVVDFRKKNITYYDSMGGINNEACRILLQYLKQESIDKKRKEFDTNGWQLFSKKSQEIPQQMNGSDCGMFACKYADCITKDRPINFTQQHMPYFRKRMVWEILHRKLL
Put plainly: SENP1 catalytic domain blockers, concentration series – biochemical, kinetic FRET, dose response (AID 651697). The test is classed as functional. Particulars: read-out: IC50_Mean.

The target in test [17] is T1, Sentrin-specific protease 1. Put plainly: Dose response confirmation of small molecule inhibitors of the catalytic domain of the SUMO protease, SENP1 in a FRET assay. The test is classed as functional. Particulars: read-out: IC50_Mean.

In general, EC50 refers to the concentration at which the effect is half-maximal. One may read the AC50 as the concentration giving half of the maximal activity seen. As usually defined, the IC90 is the concentration needed for an effect of 90%. The CC50 is the concentration that lowers cell viability or growth by half.

Nuclear receptor subfamily 0 group B member 1, sequence (P51843 whole entry): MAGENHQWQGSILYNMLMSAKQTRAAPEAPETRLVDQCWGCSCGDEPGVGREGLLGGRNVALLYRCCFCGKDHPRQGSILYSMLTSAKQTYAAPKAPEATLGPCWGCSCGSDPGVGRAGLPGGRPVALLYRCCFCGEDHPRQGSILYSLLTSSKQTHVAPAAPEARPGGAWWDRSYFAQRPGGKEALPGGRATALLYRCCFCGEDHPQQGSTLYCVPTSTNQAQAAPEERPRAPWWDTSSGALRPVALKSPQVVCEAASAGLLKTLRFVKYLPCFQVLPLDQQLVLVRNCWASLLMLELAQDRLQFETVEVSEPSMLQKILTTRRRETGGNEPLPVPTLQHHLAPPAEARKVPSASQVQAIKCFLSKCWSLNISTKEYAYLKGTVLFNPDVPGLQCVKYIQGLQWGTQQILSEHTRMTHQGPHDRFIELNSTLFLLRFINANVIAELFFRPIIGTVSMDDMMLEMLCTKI

With `CCOC(=O)c1c(S(=O)(=O)Nc2ccc(CN3CCC(C)CC3)cc2)c(C)n(C)c1C`, the IC50 (in “cells [1]”; in test [2]) was > 67.5 µM (inactive) each time.
With `Cc1cc(C)c2nc(N3CCC(C(=O)NCCCN4CC(C)CC(C)C4)CC3)sc2c1` (stereo unspecified), in [3], the IC50 is 8.62 µM (active). Moreover, the EC50 is > 60 µM (not active) in [4] and 1.22 µM (active) in test [5]. The AC50 with A-375 was 21.5 µM (active).
With `Cc1ccc(-c2cc(C(=O)N3CCCC3)no2)cc1`, the IC50 (in the test “cells [1]”; in [2]) was > 67.5 µM (inactive) throughout. Besides, the 50% effective concentration (EC50) in test [6] was 9.94 µM (inconclusive); in test [7], 2.79 µM (active).
Consider `CCOC(=O)C1CCN(c2ccc(-c3cccs3)nn2)CC1`, for which, in [8], the AC50 is 26 µM (active). The EC50 in [9] was 0.391 µM (active); with H4 it was 96.1 µM (active).
In the case of `Oc1ccnc(NCCc2ccccc2)n1`, the IC50 in the test “cells [10]” is > 29.9 µM (inactive). Also, the EC50 in the test “cells [11]” was > 29.9 µM (inactive).
For `CCC(=O)Nc1ccc2c(c1)C(=O)N(C)C2=O`, the IC50 in test [12] was 4.38 µM (active).
Turning to `Fc1ccc(CSc2nnc(-c3cccnc3)o2)cc1`, the IC90 in test [13] and in [14] was 1 µM (active) throughout.
`Cc1ccc2c(c1)CCCN2C(=O)c1cc(C)c(C)s1`: the CC50 in [15] is > 40 µM (active).
`COc1cc(/C=C2\CCCc3c2nc2ccccc2c3C(=O)O)cc(Cl)c1O`: the IC50 in test [16] was 4.82 µM (active); in [17] it was 2.96 µM (active).
